US20250295656A1, “COMBINATION OF LURBINECTEDIN AND IMMUNE CHECKPOINT INHIBITORS” (priority 2020, published 2025)

Test system: MPA/DMBA-induced tumours
Assay: MPA/DMBA-induced breast cancer model
Type: in vivo, C57BL/6 mice
Details: palpable MPA/DMBA-induced tumours; systemic injection
Method: Medroxyprogesterone acetate (MPA) pellets (50 mg, 90-day release) were implanted subcutaneously into the interscapular area of immunocompetent C57BL/6 mice. Then the animals received 1 mg dimethylbenzantracene (DMBA) administered by oral gavage 6× during 7 weeks. When spontaneous tumours became palpable mice were randomly assigned to receive 0.14 mg/Kg lurbinectedin (Lurbi) alone or in combination with double immune checkpoint blockade with monoclonal antibodies targeting CTLA-4 and PD-1 at day 6, 9 and 12 post treatment (a). The tumour area and overall survival were measured regularly until ethical endpoints were reached (b,c,d). Data were analyzed with TumGrowth (https://github.com/kroemerlab). […]
Six- to eight-week-old female wild-type C57BL/6 and nu/nu mice were obtained from Envigo France (Huntingdon, UK) and were kept in the animal facility at the Gustave Roussy Campus Cancer in a specific pathogen-free and temperature-controlled environment with 12 h day, 12 h night cycles and received food and water ad libitum. […] When tumours became palpable, 0.18 mg/Kg lurbinectedin was injected sequentially once a week intravenously into the tail vein and animal well-being and tumour growth were monitored. […] Animals were monitored and tumour growth documented regularly until end-points were reached. […]

With `COc1ccc2[nH]c3c(c2c1)CCN[C@]31CS[C@@H]2c3c(OC(C)=O)c(C)c4c(c3[C@H](COC1=O)N1[C@@H]2[C@H]2c3c(cc(C)c(OC)c3O)C[C@@H]([C@@H]1O)N2C)OCO4` [lurbinectedin] the overall survival was “increased” and the tumour growth was “significantly reduced”.
